Converted amounts (≈) assume the structure as drawn. Where two headings read alike, the source gives them in different places.
Tests used:
[1] = Absolute oral bioavailability crossover study: plasma pharmacokinetics (LC-MS/MS, non-compartmental analysis); format: in vivo, human; conditions: for half-life: read-out: t½ (plasma terminal half-life) (converted); for Tmax: median (range)
Method: This was an open-label, phase 1, randomized two-sequence, two-treatment, two-period, crossover study in healthy participants. Approximately 12 participants were to be randomized in a 1:1 ratio to receive one of two treatment sequences: lorlatinib 50 mg IV dose (Treatment A) followed by a lorlatinib 100 mg single oral dose (Treatment B), or lorlatinib oral dose followed by lorlatinib IV dose. The IV dose is 100% bioavailable and was, therefore, considered to be the reference in this study. The reference lorlatinib 50 mg single IV dose was administered as 250 mL IV solution (0.20 mg/mL) over approximately 1.25 h at a constant rate in the morning of Day 1. Lorlatinib 100 mg single oral dose was administered as 4 × 25 mg immediate-release free base tablets in the morning of Day 1 with 240 mL ambient temperature water. Participants were instructed to swallow the lorlatinib tablets whole and to not manipulate or chew the tablets prior to swallowing. Both treatments were administered after an overnight fast of at least 10 h. To standardise the conditions on PK sampling days, during the first 4 h after dosing or start of the IV dose, participants were to refrain from eating and drinking beverages other than water or lying down (unless required for safety monitoring). Period 1 was defined as a 7-day period in which participants received Treatment A or B. Period 2 was defined as the 7-day period after Period 1, in which participants received the alternative treatment to before. Following treatment administration, participants were to undergo PK sampling for 144 h with a washout period of at least 10 days between successive lorlatinib doses. The study was conducted at a single Pfizer Clinical Research Unit (CRU) in New Haven, Connecticut, and participants were confined to the CRU from the time of admission (Day 0) until discharge (Day 7 of Period 2).
The detection range was 0.05–50 ng/mL or 1 to 1000 ng/mL for low and high concentration samples, respectively. […] Calibration standard responses were linear over the range of 2.50–2500 ng/mL; using a weighted (l/concentration^2) linear least squares regression. […] The lower limit of quantification (LLOQ) for lorlatinib and its metabolite was 2.50 ng/mL.
PK parameter values were calculated using an internally validated software system (eNCA). Actual sample collection times were used for the PK parameter analysis and samples below the LLOQ were set to 0. Maximum observed plasma concentration, Cmax, and time when Cmax was reached, Tmax, were determined from the observed values. The area under the curve (AUC) from time 0 to the time of the last quantifiable concentration (AUClast) was estimated using the linear/log trapezoidal method. AUCinf was calculated as AUClast + (Clast/kel), where Clast was the predicted plasma concentration at the last quantifiable time point estimated from the log-linear regression analysis and kel was the terminal phase rate constant calculated by a linear regression of the log-linear concentration–time curve. PK parameters based on terminal phase estimation were reported only where a well-characterized terminal phase was observed. A well-characterized terminal phase is defined as one with at least three data points, r^2 ≥ 0.9, and AUCextrap% ≤ 20. Metabolite-to-parent ratios were calculated after adjustment for molecular weights. Clearance (CL) for the IV dose and CL/F for the oral dose were calculated as dose/AUCinf. Volume of distribution during the terminal phase (area) was calculated as IV dose/(kel×AUCinf).
The hepatic extraction ratio was calculated for each participant as the hepatic blood clearance divided by hepatic blood flow.
Summary profiles (mean) of the lorlatinib plasma concentration–time data were plotted by treatment. Nominal PK sampling time was used for summary statistics and summary plots by sampling time.

[2] = Solubility in aqueous media; format: physicochemical
[3] = design: method as in earlier work; conditions: cited from earlier work
[4] = dogs; animal studies, no reference given; cited from earlier work
human blood = conditions: planned IV dose formulation, human blood in vitro; earlier toxicology studies, no reference given; cited from earlier work
[5] = planned IV dose formulation, rabbits; earlier toxicology studies, no reference given; cited from earlier work
[6] = used to estimate hepatic blood clearance; no reference given; cited from earlier work
[7] = cited from earlier work; for Mean half-life: previous drug interaction studies
[8] = design: method as in PMID 33937953; conditions: co-administered with modafinil; cited from earlier work
[9] = cited from earlier work; for Mean half-life: previous drug interaction studies; remark: listed apart in the source
[10] = design: method as in PMID 24819116; conditions: in vitro; cited from earlier work
[11] = 100 mg oral tablets vs 50 mg IV, healthy participants, n = 11
[12] = lorlatinib 100 mg oral tablets, n = 11, geometric mean (geometric %CV)

C[C@H]1Oc2cc(cnc2N)-c2c(nn(C)c2C#N)CN(C)C(=O)c2ccc(F)cc21 [Lorlatinib, (10R)-7-amino-12-fluoro-2,10,16-trimethyl-15-oxo-10,15,16,17-tetrahydro-2H-8,4-(metheno)pyrazolo[4,3-h][2,5,11]-benzoxadiazacyclotetradecine-3-carbonitrile]
Absolute oral bioavailability: ratio (test/reference) of adjusted means, AUCinf (dn) [1, 11]: 80.78%
Ratio (test/reference) of adjusted means, AUClast (dn) [1, 11]: 81.65%
Absolute oral bioavailability: ratio (test/reference) of adjusted means, AUCinf (dn) ([1]; 100 mg oral tablets vs 50 mg IV, healthy participants, n = 11, listed as lorlatinib): 81%
Inter-subject variability (%CV) for AUCinf, AUClast and Cmax ([1]; both oral administration and IV dosing): 30–38%
AUC(0-inf) ([1]; human, plasma, iv, 50 mg, Reference, lorlatinib 50 mg IV, mixed-effects model, read-out: AUCinf (dn), adjusted geometric mean): 5190 ng·h/mL
AUC(0-t) ([1]; human, plasma, iv, 50 mg, Reference, lorlatinib 50 mg IV, mixed-effects model, read-out: AUClast (dn), adjusted geometric mean): 5030 ng·h/mL
AUC(0-inf) ([1]; human, plasma, iv, 50 mg, lorlatinib 50 mg IV, dose normalized, n = 11, geometric mean (geometric %CV), read-out: AUCinf (dn)): 5150 ng·h/mL
AUC(0-t) ([1]; human, plasma, iv, 50 mg, lorlatinib 50 mg IV, dose normalized, n = 11, geometric mean (geometric %CV), read-out: AUClast (dn)): 4990 ng·h/mL
half-life ([1]; human, plasma, iv, 50 mg, lorlatinib 50 mg IV, n = 11, arithmetic mean ± SD): 27 h
AUC(0-inf) ([1]; human, plasma, iv, 50 mg, lorlatinib 50 mg IV, n = 11, geometric mean (geometric %CV), read-out: AUCinf): 5150 ng·h/mL
AUC(0-t) ([1]; human, plasma, iv, 50 mg, lorlatinib 50 mg IV, n = 11, geometric mean (geometric %CV), read-out: AUClast): 4990 ng·h/mL
AUC(0-inf) ([1]; human, plasma, oral, 100 mg, Test, lorlatinib 100 mg oral tablets, mixed-effects model, normalized to 50 mg IV dose, read-out: AUCinf (dn), adjusted geometric mean): 4190 ng·h/mL
half-life ([1]; human, plasma, po, 100 mg, lorlatinib 100 mg oral tablets, n = 11, arithmetic mean ± SD): ~25.5 h
AUC(0-inf) ([1]; human, plasma, po, 100 mg, lorlatinib 100 mg oral tablets, single dose, fasted, n = 11, geometric mean (geometric %CV), read-out: AUCinf): 8290 ng·h/mL
Cmax ([1]; human, plasma, lorlatinib 50 mg IV, dose normalized, n = 11, geometric mean (geometric %CV), read-out: Cmax (dn)): 392 ng/mL
clearance ([1]; human, plasma, lorlatinib 50 mg IV, n = 11, geometric mean (geometric %CV)): 162 mL/min
Vd ([1]; human, plasma, lorlatinib 50 mg IV, n = 11, geometric mean (geometric %CV), read-out: Vss): 305 L
Tmax ([1]; human, plasma, lorlatinib 50 mg IV, n = 11, read-out: Tmax): 1.28 h
Vd/F ([1]; human, plasma, lorlatinib 100 mg oral tablets, n = 11, geometric mean (geometric %CV), read-out: Vz/F): 440 L
Cmax ([1]; lorlatinib 50 mg IV, n = 11, geometric mean (geometric %CV)): 392 ng/mL
t½ (plasma terminal half-life) ([1]; lorlatinib 100 mg oral tablets, n = 11, arithmetic mean ± SD): 25.54 ± 3.75 h
AUClast [1, 12]: 8109 (33) ng.h/mL
CL/F [1, 12]: 12.05 (34) L/h
Cmax [1, 12]: 501 ng/mL
Tmax ([1]; lorlatinib 100 mg oral tablets, n = 11): 1.50 (1.00–4.02) h
Eh (hepatic extraction ratio) ([1]; printed in the 100 mg oral column, plasma clearance × blood-to-plasma ratio 0.985 / hepatic blood flow 90 L/hr, geometric mean (geometric %CV)): 0.118
solubility ([2]; pH 2.55): 32.4 mg/mL (≈ 79.7 mM)
solubility ([2]; pH 8.02): 0.17 mg/mL (≈ 0.418 mM)
Oral apparent clearance (CL/F), mean (CV%) ([3]; after a 100 mg single oral dose): 11 L/h
Oral apparent clearance (CL/F), mean (CV%) ([3]; at steady-state): 18 L/h
Plasma terminal half-life (t½), mean (CV%) [3]: approximately 24 h
Absolute bioavailability [4]: ~97%
Potential to cause hemolysis (human blood): did not indicate any potential to cause hemolysis
Local vascular tissue irritation [5]: did not indicate any local vascular tissue irritation
Blood-to-plasma partitioning ratio [6]: 0.985
AUCinf reduction ([7]; co-administered with rifampicin): 85%
Mean half-life ([7]; lorlatinib alone, rifampin study): 29 h
Mean half-life ([7]; with the inducer rifampin): 18 h
AUCinf reduction [8]: 23%
AUCinf increase ([9]; co-administered with itraconazole): 42%
Mean half-life ([9]; lorlatinib alone, itraconazole study): 23 h
Mean half-life ([9]; with the inhibitor itraconazole): 30 h
Permeability [10]: highly permeable

From article PMC8933379, “Evaluation of the absolute oral bioavailability of the anaplastic lymphoma kinase/c-ROS oncogene 1 kinase inhibitor lorlatinib in healthy participants” (Cancer Chemotherapy and Pharmacology, 2021)
